Assay: recombinant barcode read abundance after kanamycin selection (control-corrected) (log10(CPM+1)); higher = more efficient recombination; sequences stand for … in AGTGCAGAGAAAATCGGCCAGTTTTCTCTGCCTGCAGTCCGCATGCCGT…AGATTTATGCAGCGGACTGCCTTTCTCCCAAAGTGATAAACCGGACAGTATCATGGACCGGTTTTCCCGGTAATCCGTATTTGCAAGGTTGGTTTCACT; site = the 11-nt target
In short: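 Pooled E. coli screen pairing targets with IS621 bridge RNA target-binding loops. Each oligo (promoter, target, barcode, J23119-driven first 104 bridge RNA bases) was Gibson-cloned into a vector with the remaining 73 bp and T7-inducible recombinase, then co-electroporated with a donor plasmid. Two replicates each were plated on chloramphenicol/ampicillin LB agar (control) or chloramphenicol/ampicillin/kanamycin with 0.1 mM IPTG. Recombination efficiency is recombinant-junction barcode counts as CPM, averaged, control-corrected, reported as log10(CPM+1).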
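Also: IS621 recombinase and bridge RNA in Escherichia coli cells.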

TAAGGAGCTTGGGTTCTAACCTGTTGCCT (site TAAGGAGCTAG)
recombinant barcode read abundance (log10): 1.39

TAAGGAGCTTGGGTTCTAACCTGTTGCCT (site TAGGGCGCTAG)
recombinant barcode read abundance (log10): 0.0289

TAAGGGACTTGGGTTCTAACCTGTTGCTA (site CGCCCTTCTAG)
recombinant barcode read abundance (log10): 0.239

TAAGGGACTTGGGTTCTAACCTGTTGCTA (site TAAGGGACTTA)
recombinant barcode read abundance (log10): 2.26

TAAGGTACTTGGGTTCTAACCTGTTGCTT (site TAAAGTACTAA)
recombinant barcode read abundance (log10): 0.0963

TAAGGTACTTGGGTTCTAACCTGTTGCTT (site TAACGTACTAA)
recombinant barcode read abundance (log10): 0.151

TAAGGTACTTGGGTTCTAACCTGTTGCTT (site TAAGGTACTAA)
recombinant barcode read abundance (log10): 1.26

TAAGGTACTTGGGTTCTAACCTGTTGCTT (site TAATGTACTAA)
recombinant barcode read abundance (log10): 0.0967

TAAGGTCCTTGGGTTCTAACCTGTTGCAG (site TAAGGTCCTCT)
recombinant barcode read abundance (log10): 2.47

TAAGGTCCTTGGGTTCTAACCTGTTGCAG (site TAGGGTCCTCC)
recombinant barcode read abundance (log10): 0.158

TAAGTCACTTGGGTTCTAACCTGTTGCCT (site GAAGTCACTAG)
recombinant barcode read abundance (log10): 0.0452

TAAGTCACTTGGGTTCTAACCTGTTGCCT (site TAAGTCACTAG)
recombinant barcode read abundance (log10): 1.9

TAAGTGTCTTGGGTTCTAACCTGTTGCCT (site TAAGTGTCTAG)
recombinant barcode read abundance (log10): 2.56

TAAGTGTCTTGGGTTCTAACCTGTTGCCT (site TACGTGTCTAG)
recombinant barcode read abundance (log10): 0.171

TAAGTGTCTTGGGTTCTAACCTGTTGCCT (site TAGGTGTCTAG)
recombinant barcode read abundance (log10): 0.314

TAAGTGTCTTGGGTTCTAACCTGTTGCCT (site TATGTGTCTAG)
recombinant barcode read abundance (log10): 1.03

TAATGAACTTGGGTTCTAACCTGTTGCCT (site TAATGAACTAG)
recombinant barcode read abundance (log10): 0.32

TAATGAACTTGGGTTCTAACCTGTTGCCT (site TAATGTACTAG)
recombinant barcode read abundance (log10): 0.216

TAATGACCTTGGGTTCTAACCTGTTGCAT (site TAATGACCTAA)
recombinant barcode read abundance (log10): 0.0652

TAATGACCTTGGGTTCTAACCTGTTGCAT (site TAATGACCTAT)
recombinant barcode read abundance (log10): 1.67

TAATGGTCTTGGGTTCTAACCTGTTGCAT (site TAATGGTCTAT)
recombinant barcode read abundance (log10): 1.61

TAATGGTCTTGGGTTCTAACCTGTTGCAT (site TAATGTTCTAT)
recombinant barcode read abundance (log10): 0.065

TAATTGCCTTGGGTTCTAACCTGTTGCCT (site TAATTGCCTAG)
recombinant barcode read abundance (log10): 0.645

TAATTGCCTTGGGTTCTAACCTGTTGCCT (site TACTTGCCTAG)
recombinant barcode read abundance (log10): 0.324

TAATTGCCTTGGGTTCTAACCTGTTGCCT (site TAGTTGCCTAG)
recombinant barcode read abundance (log10): 0.474

TAATTGCCTTGGGTTCTAACCTGTTGCCT (site TATTTGCCTAG)
recombinant barcode read abundance (log10): 0.0725

TACAAGCCTTGGGTTCTAACCTGTTGCCT (site TACAAGCCTAG)
recombinant barcode read abundance (log10): 0.338

TACAAGCCTTGGGTTCTAACCTGTTGCCT (site TAGAAGCCTCG)
recombinant barcode read abundance (log10): 0.0913

TACAAGGCTTGGGTTCTAACCTGTTGCGG (site TACAAGGCTCC)
recombinant barcode read abundance (log10): 2.68

TACAAGGCTTGGGTTCTAACCTGTTGCGG (site TACAAGTCTCC)
recombinant barcode read abundance (log10): 0.292

TACACAGCTTGGGTTCTAACCTGTTGCCT (site TAAACAGCTAG)
recombinant barcode read abundance (log10): 0.176

TACACAGCTTGGGTTCTAACCTGTTGCCT (site TACACAGCTAG)
recombinant barcode read abundance (log10): 0.909

TACACAGCTTGGGTTCTAACCTGTTGCCT (site TAGACAGCTAG)
recombinant barcode read abundance (log10): 0.249

TACACAGCTTGGGTTCTAACCTGTTGCCT (site TATACAGCTAG)
recombinant barcode read abundance (log10): 0.149

TACACTACTTGGGTTCTAACCTGTTGCCG (site TACACGACTCC)
recombinant barcode read abundance (log10): 0.0364

TACACTACTTGGGTTCTAACCTGTTGCCG (site TACACTACTCG)
recombinant barcode read abundance (log10): 0.177

TACATCCCTTGGGTTCTAACCTGTTGCCA (site TACATCCCTAG)
recombinant barcode read abundance (log10): 0.5

TACATCCCTTGGGTTCTAACCTGTTGCCA (site TACATCCCTCG)
recombinant barcode read abundance (log10): 0.0234

TACATCCCTTGGGTTCTAACCTGTTGCCA (site TACATCCCTGG)
recombinant barcode read abundance (log10): 0.0594

TACATCCCTTGGGTTCTAACCTGTTGCCA (site TACATCCCTTG)
recombinant barcode read abundance (log10): 0.358

TACATTCCTTGGGTTCTAACCTGTTGCCT (site AACATTCCTAG)
recombinant barcode read abundance (log10): 0.0286

TACATTCCTTGGGTTCTAACCTGTTGCCT (site CACATTCCTAG)
recombinant barcode read abundance (log10): 0.0666

TACATTCCTTGGGTTCTAACCTGTTGCCT (site GACATTCCTAG)
recombinant barcode read abundance (log10): 0.179

TACATTCCTTGGGTTCTAACCTGTTGCCT (site TACATTCCTAG)
recombinant barcode read abundance (log10): 0.156

TACCCTACTTGGGTTCTAACCTGTTGCCT (site AACCCTACTAG)
recombinant barcode read abundance (log10): 0.0271

TACCCTACTTGGGTTCTAACCTGTTGCCT (site CACCCTACTAG)
recombinant barcode read abundance (log10): 0.0188

TACCCTACTTGGGTTCTAACCTGTTGCCT (site GACCCTACTAG)
recombinant barcode read abundance (log10): 0.0371

TACCCTACTTGGGTTCTAACCTGTTGCCT (site TACCCTACTAG)
recombinant barcode read abundance (log10): 0.628

TACCGGCCTTGGGTTCTAACCTGTTGCCT (site TAACGGCCTAG)
recombinant barcode read abundance (log10): 0.288

TACCGGCCTTGGGTTCTAACCTGTTGCCT (site TACCGGCCTAG)
recombinant barcode read abundance (log10): 0.141

TACCGGCCTTGGGTTCTAACCTGTTGCCT (site TAGCGGCCTAG)
recombinant barcode read abundance (log10): 0.176

TACCGGCCTTGGGTTCTAACCTGTTGCCT (site TATCGGCCTAG)
recombinant barcode read abundance (log10): 0.166

TACCTAGCTTGGGTTCTAACCTGTTGCGT (site TACCTAGCTAC)
recombinant barcode read abundance (log10): 1.3

TACCTAGCTTGGGTTCTAACCTGTTGCGT (site TACCTATCTAC)
recombinant barcode read abundance (log10): 0.433

TACCTATCTTGGGTTCTAACCTGTTGCCT (site TACCTATCTAG)
recombinant barcode read abundance (log10): 1.11

TACCTATCTTGGGTTCTAACCTGTTGCCT (site TCCCTATCTAG)
recombinant barcode read abundance (log10): 0.00692

TACCTATCTTGGGTTCTAACCTGTTGCCT (site TGCCTATCTAG)
recombinant barcode read abundance (log10): 0.0136

TACCTATCTTGGGTTCTAACCTGTTGCCT (site TTCCTATCTAG)
recombinant barcode read abundance (log10): 0.429

TACCTGACTTGGGTTCTAACCTGTTGCCT (site TACCAGACTAG)
recombinant barcode read abundance (log10): 0.0067

TACCTGACTTGGGTTCTAACCTGTTGCCT (site TACCCGACTAG)
recombinant barcode read abundance (log10): 0.355

TACCTGACTTGGGTTCTAACCTGTTGCCT (site TACCGGACTAG)
recombinant barcode read abundance (log10): 0.106

TACCTGACTTGGGTTCTAACCTGTTGCCT (site TACCTGACTAG)
recombinant barcode read abundance (log10): 0.688

TACGCCTCTTGGGTTCTAACCTGTTGCCT (site AACGCCTCTAG)
recombinant barcode read abundance (log10): 0.0117

TACGCCTCTTGGGTTCTAACCTGTTGCCT (site CACGCCTCTAG)
recombinant barcode read abundance (log10): 0.164

TACGCCTCTTGGGTTCTAACCTGTTGCCT (site GACGCCTCTAG)
recombinant barcode read abundance (log10): 0.249

TACGCCTCTTGGGTTCTAACCTGTTGCCT (site TACGCCTCTAG)
recombinant barcode read abundance (log10): 1.29

TACGTGTCTTGGGTTCTAACCTGTTGCCT (site TAAGTGTCTAG)
recombinant barcode read abundance (log10): 0.408

TACGTGTCTTGGGTTCTAACCTGTTGCCT (site TACGTGTCTAG)
recombinant barcode read abundance (log10): 2.4

TACGTGTCTTGGGTTCTAACCTGTTGCCT (site TAGGTGTCTAG)
recombinant barcode read abundance (log10): 0.0617

TACGTGTCTTGGGTTCTAACCTGTTGCCT (site TATGTGTCTAG)
recombinant barcode read abundance (log10): 0.103

TACTAAGCTTGGGTTCTAACCTGTTGCCT (site TACTAAGCTAA)
recombinant barcode read abundance (log10): 0

TACTAAGCTTGGGTTCTAACCTGTTGCCT (site TACTAAGCTAC)
recombinant barcode read abundance (log10): 0.098

TACTAAGCTTGGGTTCTAACCTGTTGCCT (site TACTAAGCTAG)
recombinant barcode read abundance (log10): 0.495

TACTAAGCTTGGGTTCTAACCTGTTGCCT (site TACTAAGCTAT)
recombinant barcode read abundance (log10): 0.171

TACTATGCTTGGGTTCTAACCTGTTGCGA (site TACTATGCTTC)
recombinant barcode read abundance (log10): 0.41

TACTATGCTTGGGTTCTAACCTGTTGCGA (site TCCTATTCTTC)
recombinant barcode read abundance (log10): 0

TACTATTCTTGGGTTCTAACCTGTTGCCT (site TACTATACTAG)
recombinant barcode read abundance (log10): 0.0693

TACTATTCTTGGGTTCTAACCTGTTGCCT (site TACTATCCTAG)
recombinant barcode read abundance (log10): 0.0345

TACTATTCTTGGGTTCTAACCTGTTGCCT (site TACTATGCTAG)
recombinant barcode read abundance (log10): 0.175

TACTATTCTTGGGTTCTAACCTGTTGCCT (site TACTATTCTAG)
recombinant barcode read abundance (log10): 0.263

TACTGCTCTTGGGTTCTAACCTGTTGCTT (site TACAGCTCTAA)
recombinant barcode read abundance (log10): 0.0305

TACTGCTCTTGGGTTCTAACCTGTTGCTT (site TACCGCTCTAA)
recombinant barcode read abundance (log10): 0.213

TACTGCTCTTGGGTTCTAACCTGTTGCTT (site TACGGCTCTAA)
recombinant barcode read abundance (log10): 0.0516

TACTGCTCTTGGGTTCTAACCTGTTGCTT (site TACTGCTCTAA)
recombinant barcode read abundance (log10): 0.296

TACTTAACTTGGGTTCTAACCTGTTGCCT (site TACTAAACTAG)
recombinant barcode read abundance (log10): 0.119

TACTTAACTTGGGTTCTAACCTGTTGCCT (site TACTCAACTAG)
recombinant barcode read abundance (log10): 0.00663
